US10035790B2, “RORγ modulators” (BRISTOL-MYERS SQUIBB COMPANY, priority 2012, dated 2018)
Like-named read-outs stand apart in the source and are kept apart here.

Target: T1, ligand binding domain of human RORγ (A262-S507) (Homo sapiens, UniProt P51449)
T1 construct: made in house; host or cells: E. coli
T1 sequence (P51449 262-507): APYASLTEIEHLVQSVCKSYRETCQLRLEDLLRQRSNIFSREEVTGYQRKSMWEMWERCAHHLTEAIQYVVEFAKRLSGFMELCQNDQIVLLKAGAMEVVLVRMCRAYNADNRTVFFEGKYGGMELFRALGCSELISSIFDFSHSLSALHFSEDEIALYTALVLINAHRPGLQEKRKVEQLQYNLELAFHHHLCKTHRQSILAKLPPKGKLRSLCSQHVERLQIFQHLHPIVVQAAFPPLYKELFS
Experiment: General RORγ SPA binding assay (competition with [3H]25-hydroxycholesterol)
Conditions: inhibition of [3H]25-hydroxycholesterol binding
In short: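 N-terminally His-tagged protein was expressed in E. coli and nickel-purified. Then 50 nM protein was preincubated with compound for 15 min at room temperature in PBS with 0.5% fatty acid free BSA, followed by radioligand for 15 min and copper His-tag SPA beads for 30 min. IC50 came from percent inhibition of binding.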

[1] = RORγ SPA binding assay, read-out: IC50

IC50 [1] [nM] | Compound | IC50 (IC50, RORγ SPA binding assay) [nM]
116 | Cc1nc(C)c(C(=O)NCc2ccnc(C(F)(F)F)n2)c(C2CCN(C(=O)Nc3c(F)cccc3F)CC2)n1 [Compound A122, 4-(1-{[(2,6-difluorophenyl)amino]carbonyl}piperidin-4-yl)-2,6-dimethyl-N-{[2-(trifluoromethyl)pyrimidin-4-yl]methyl}pyrimidine-5-carboxamide] | –
11.2 | Cc1nc(C)c(-c2nnc(-c3ccnc(C(F)(F)F)n3)o2)c(C2CCN(C(=O)C(F)(F)c3c(F)cccc3F)CC2)n1 [Compound C43, 4-{1-[(2,6-difluorophenyl)(difluoro)acetyl]piperidin-4-yl}-2,6-dimethyl-5-{5-[2-(trifluoromethyl)pyrimidin-4-yl]-1,3,4-oxadiazol-2-yl}pyrimidine] | –
1.7 | Cc1nc(C)c(C(=O)COc2ccnc(C(F)(F)F)n2)c(C2CCN(C(=O)Nc3c(F)cccc3F)CC2)n1 [Compound M8, N-(2,6-Difluorophenyl)-4-[2,6-dimethyl-5-({[2-(trifluoromethyl)pyrimidin-4-yl]oxy}acetyl)pyrimidin-4-yl]piperidine-1-carboxamide] | –
342 | Cc1cc(C)cc(CNC(=O)c2cnc(C)nc2C2CCN(CC(=O)c3ccccc3Cl)CC2)c1 [Compound A115, 4-(1-(2-(2-Chlorophenyl)-2-oxoethyl)piperidin-4-yl)-N-(3,5-dimethylbenzyl)-2-methylpyrimidine-5-carboxamide] | –
1750 | Cc1ncc(C(=O)NOc2ccccc2)c(C2CCN(C(=O)Cc3c(F)cccc3F)CC2)n1 [Compound H7, 4-(1-(2-(2,6-difluorophenyl)acetyl)piperidin-4-yl)-2-methyl-N-phenoxypyrimidine-5-carboxamide] | –
63 | Cc1ncc(C(C)(C)OCc2cccc(Cl)n2)c(C2CCN(C(=O)Cc3c(F)cccc3F)CC2)n1 [Compound E7, 1-(4-(5-(2-((6-chloropyridin-2-yl)methoxy)propan-2-yl)-2-methylpyrimidin-4-yl)piperidin-1-yl)-2-(2,6-difluorophenyl)ethanone] | –
72 | Cc1ncc(C(=O)NCc2cc(C(F)(F)F)ccn2)c(C2CCN(C(=O)Cc3c(F)cccc3F)CC2)n1 [Compound A66, 4-(1-(2-(2,6-difluorophenyl)acetyl)piperidin-4-yl)-2-methyl-N-((4-(trifluoromethyl)pyridin-2-yl)methyl)pyrimidine-5-carboxamide] | –
608 | Cc1nc(C)c(-c2nnc(-c3ccnc(C(F)(F)F)n3)o2)c(C2CCN(C(=O)[C@H](C)c3c(F)cccc3F)CC2)n1 [Compound C35, (R)-2-(2,6-Difluorophenyl)-1-(4-(2,6-dimethyl-5-(5-(2-(trifluoromethyl)pyrimidin-4-yl)-1,3,4-oxadiazol-2-yl)pyrimidin-4-yl)piperidin-1-yl)propan-1-one] | –
2.8 | Cc1nc(N)nc(C2CCN(C(=O)Nc3c(F)cccc3F)CC2)c1C(=O)COc1cccc(C(F)(F)F)n1 [Compound M11, 4-[2-Amino-6-methyl-5-({[6-(trifluoromethyl)pyridin-2-yl]oxy}acetyl)pyrimidin-4-yl]-N-(2,6-difluorophenyl)piperidine-1-carboxamide] | –
123 | Cc1nc(C)c(-c2nnc(-c3ccnc(C(F)(F)F)n3)o2)c(C2CCN(C(=S)Nc3c(F)cccc3F)CC2)n1 [Compound C46, N-(2,6-Difluorophenyl)-4-(2,6-dimethyl-5-{5-[2-(trifluoromethyl)pyrimidin-4-yl]-1,3,4-oxadiazol-2-yl}pyrimidin-4-yl)piperidine-1-carbothioamide] | –
1140 | COc1nc(C)c(-c2nnc(-c3ccnc(C(F)(F)F)n3)o2)c(C2CCN(C(=O)Nc3c(F)cccc3F)CC2)n1 [Compound C61, N-(2,6-Difluorophenyl)-4-[6-methyl-2-(methyloxy)-5-{5-[2-(trifluoromethyl)pyrimidin-4-yl]-1,3,4-oxadiazol-2-yl}pyrimidin-4-yl]piperidine-1-carboxamide] | –

Continued, molecule first:

Compound | IC50 [1] [nM] | IC50 (IC50, RORγ SPA binding assay) [nM]
Cc1nc(N)nc(C2CCN(C(=O)Oc3c(F)cccc3F)CC2)c1-c1nnc(-c2ccnc(C(F)(F)F)n2)o1 [Compound C50, 2,6-Difluorophenyl 4-(2-amino-6-methyl-5-{5-[2-(trifluoromethyl)pyrimidin-4-yl]-1,3,4-oxadiazol-2-yl}pyrimidin-4-yl)piperidine-1-carboxylate] | 6.1 | –
Cc1ncc(C2(COc3cccc(C(F)(F)F)n3)CNC(=O)O2)c(C2CCN(C(=O)Nc3c(F)cccc3F)CC2)n1 (stereo not drawn) [Compound N52, N-(2,6-Difluorophenyl)-4-{2-methyl-5-[2-oxo-5-({[6-(trifluoromethyl)pyridin-2-yl]oxy}methyl)-1,3-oxazolidin-5-yl]pyrimidin-4-yl}piperidine-1-carboxamide] | 13.8 | –
Cc1ncc(C(CF)=NOc2ccnc(C(F)(F)F)c2)c(C2CCN(C(=O)Cc3c(F)cccc3F)CC2)n1 [Compound B24, (1Z)-1-(4-{1-[(2,6-Difluorophenyl)acetyl]piperidin-4-yl}-2-methylpyrimidin-5-yl)-2-fluoroethanone 0-[2-(trifluoromethyl)pyridin-4-yl]oxime] | 8.7 | –
Cc1ncc(C(=O)NCc2cccc(OC(F)(F)F)c2)c(C2CCN(C(=O)Cc3c(F)cccc3F)CC2)n1 [Compound A53, 4-(1-(2-(2,6-difluorophenyl)acetyl)piperidin-4-yl)-2-methyl-N-(3-(trifluoromethoxy)benzyl)pyrimidine-5-carboxamide] | 8.1 | –
Cc1cc(C)cc(CNC(=O)c2c(C)nc(C)nc2C2CCN(C(=O)Cc3c(F)cccc3F)CC2)c1 [Compound A80, 4-(1-(2-(2,6-difluorophenyl)acetyl)piperidin-4-yl)-N-(3,5-dimethylbenzyl)-2,6-dimethylpyrimidine-5-carboxamide] | 9.8 | –
Cc1ncc(/C(=N/Oc2ccnc(C(F)(F)F)c2)C(F)F)c(C2CCN(C(=O)Cc3c(F)cccc3F)CC2)n1 [Compound B32, (1Z)-1-(4-{1-[(2,6-Difluorophenyl)acetyl]piperidin-4-yl}-2-methylpyrimidin-5-yl)-2,2-difluoroethanone O-[2-(trifluoromethyl)pyridin-4-yl]oxime] | 15.3 | –
Nc1ncc(C(=O)COc2ccnc(C(F)(F)F)n2)c(C2CCN(C(=O)Oc3c(F)cccc3F)CC2)n1 [Compound M3, 2,6-Difluorophenyl 4-[2-amino-5-({[2-(trifluoromethyl)pyrimidin-4-yl]oxy}acetyl)pyrimidin-4-yl]piperidine-1-carboxylate] | – | 19.1
Cc1nc(C)c(-c2nnc(-c3cccc(C(F)(F)F)n3)o2)c(C2CCN(C(=O)Cc3c(F)cccc3F)CC2)n1 [Compound C6, 2-(2,6-difluorophenyl)-1-(4-(2,6-dimethyl-5-(5-(6-(trifluoromethyl)pyridin-2-yl)-1,3,4-oxadiazol-2-yl)pyrimidin-4-yl)piperidin-1-yl)ethanone] | 5.2 | –
Cc1ncc(C(=O)NCc2cc(F)cc(Cl)c2)c(C2CCN(C(=O)Cc3c(F)cccc3F)CC2)n1 [Compound A41, N-(3-chloro-5-fluorobenzyl)-4-(1-(2-(2,6-difluorophenyl)acetyl)piperidin-4-yl)-2-methylpyrimidine-5-carboxamide] | 4.8 | –
CN(C)c1ncc(C(C)(O)COc2ccnc(C(F)(F)F)n2)c(C2CCN(C(=O)Nc3c(F)cccc3F)CC2)n1 (stereo not drawn) [Compound D38, N-(2,6-Difluorophenyl)-4-[2-(dimethylamino)-5-(1-hydroxy-1-methyl-2-{[2-(trifluoromethyl)pyrimidin-4-yl]oxy}ethyl)pyrimidin-4-yl]piperidine-1-carboxamide] | 25.9 | –
Cc1ncc(C(O)(CCN)COc2cccc(C(F)(F)F)n2)c(C2CCN(C(=O)Nc3c(F)cccc3F)CC2)n1 (stereo not drawn) [Compound N31, 4-(5-(4-Amino-2-hydroxy-1-(6-(trifluoromethyl)pyridin-2-yloxy)butan-2-yl)-2-methylpyrimidin-4-yl)-N-(2,6-difluorophenyl)piperidine-1-carboxamide] | 620 | –
Cc1ncc(C(=O)NCc2cc(C)n(C)n2)c(C2CCN(C(=O)Cc3c(F)cccc3F)CC2)n1 [Compound A78, 4-(1-(2-(2,6-difluorophenyl)acetyl)piperidin-4-yl)-N-((1,5-dimethyl-1H-pyrazol-3-yl)methyl)-2-methylpyrimidine-5-carboxamide] | 1790 | –
Cc1cc(C)cc(CNC(=O)c2c(C3CCN(C(=O)Cc4c(F)cccc4F)CC3)nc(C)nc2C(F)(F)F)c1 [Compound A112, 4-(1-(2-(2,6-Difluorophenyl)acetyl)piperidin-4-yl)-N-(3,5-dimethylbenzyl)-2-methyl-6-(trifluoromethyl)pyrimidine-5-carboxamide] | 33.6 | –
Cc1ncc(C(=O)NCc2cccc(Cl)c2F)c(C2CCN(C(=O)Cc3c(F)cccc3F)CC2)n1 [Compound A54, N-(3-chloro-2-fluorobenzyl)-4-(1-(2-(2,6-ditluorophenyl)acetyl)piperidin-4-yl)-2-methylpyrimidine-5-carboxamide] | 13.9 | –
Cc1cc(C)cc(OCC(C)(O)c2cnc(C)nc2C2CCN(C(=O)Cc3c(F)cccc3F)CC2)c1 (stereo not drawn) [Compound D11, 2-(2,6-Difluorophenyl)-1-(4-(5-(1-(3,5-dimethylphenoxy)-2-hydroxypropan-2-yl)-2-methylpyrimidin-4-yl)piperidin-1-yl)ethanone] | 14.5 | –
C/C(=N\Oc1cccc(C(F)(F)F)n1)c1cnc(C)nc1C1CCN(C(=O)Cc2c(F)cccc2F)CC1 [Compound B19, (E)-2-(2,6-difluorophenyl)-1-(4-(2-methyl-5-(1-(((6-(trifluoromethyl)pyridin-2-yl)oxy)imino)ethyl)pyrimidin-4-yl)piperidin-1-yl)ethanone] | 13.9 | –
